In paper PMC12715762, “Discovery of VU6052254: A Novel, Potent M1 Positive Allosteric Modulator” (ACS Chemical Neuroscience, 2025):

Legend:
[1] = hepatocyte metabolite stability (monkey); assay type: in vitro ADME; conditions: Monkey hepatocytes, 4 h incubation of the parent PAM
Source text: (§1) However, the hepatocyte stability of 7 was far better than 1 for rat, dog, and human and was therefore poised for further advancement of compound characterization.

[2] = Human Phase I; cited from earlier work
[3] = hepatocyte metabolite stability (human); assay type: in vitro ADME; conditions: Human hepatocytes, 4 h incubation of the parent PAM
Source text: From this exercise, a single compound emerged, harboring a tertiary hydroxyl moiety at the 7-position of the indazole, VU6052254 (henceforth PAM 7).
as §1

[4] = multispecies hepatocyte stability, summary across species; assay type: in vitro ADME, rat, dog, monkey, human
Source text: as §1

[5] = test system: Sprague-Dawley rats; experiment: CFC with scopolamine challenge; assay type: in vivo, rat
[6] = dog MTD study and high-dose rat 14-day toxicology study; result in words; cited from earlier work
[7] = kinetic / aqueous solubility; assay type: physicochemical; conditions: result in words

Compound: Cn1cc2c(-c3cc(F)c(CN4C(=O)c5cccnc5C4O)c(F)c3)cccc2n1 (stereo not shown) [compound 2]
- % Total Peak Area, oxidative metabolite (label = metabolite) [1]: 74.3%
- metabolite share of plasma AUC of total VU0467319 drug administered [2]: > 50%
- % Total Peak Area, oxidative metabolite (label = metabolite) [3]: 34.9%
- level of oxidative metabolite generated (label = metabolite) ([4]; across all four species (rat, dog, monkey, human hepatocytes)): > 23%

Compound: CN1[C@@H]2C[C@@H](OC(=O)[C@H](CO)c3ccccc3)C[C@H]1[C@@H]1O[C@@H]12 [scopolamine]
- disruption of acquisition of CFC ([5]; 0.25 mg/kg IP, rat): ~65%
- effect of scopolamine alone on acquisition of CFC ([5]; 0.26 mg/kg as printed, result in words): robust decrease in the acquisition of CFC

Compound: [2H]C1([2H])c2ncccc2C(=O)N1Cc1c(F)cc(-c2cccc3nn(C([2H])([2H])[2H])cc23)cc1F [compound 5]
- amount of oxidative metabolism at high dose [6]: comparable to that of VU0467319 (1)
- aqueous solubility [7]: low aqueous solubility

Compound: [2H]C1(O)c2ncccc2C(=O)N1Cc1c(F)cc(-c2cccc3nn(C([2H])([2H])[2H])cc23)cc1F (stereo not shown) [compound 6]
- % Total Peak Area, oxidative metabolite (label = metabolite) [1]: 21%
- level of oxidative metabolite generated (label = metabolite) ([4]; across species except for monkey): < 10%
